Experimental data: ChEMBL document CHEMBL5316313, “Discovery of Novel 3-Phenylpiperidine Derivatives Targeting the β-Catenin/B-Cell Lymphoma 9 Interaction as a Single Agent and in Combination with the Anti-PD-1 Antibody for the Treatment of Colorectal Cancer” (J Med Chem, 2023)
The source made the active and inactive calls. The calls are words filed in the database; no cut-off is given here.

Columns and labels:
[1] = Microsomal stability in mouse liver microsomes assessed as half life at […] and measured upto 60 mins by LC-MS/MS analysis; type: ADME, Microsome
[2] = tested on: HEK293; assay: Induction of apoptosis in Wnt-independent human HEK293 cells assessed as late apoptotic cells at 20 uM incubated for 24 hrs by Annexin V-Alexa Fluor 647/PI staining based flow cytomtery (Rvb=10.5%); type: functional
[3] = tested on: HEK293; assay: Induction of apoptosis in Wnt-independent human HEK293 cells assessed as early apoptotic cells at 20 uM incubated for 24 hrs by Annexin V-Alexa Fluor 647/PI staining based flow cytomtery (Rvb=17.4%); type: functional
[4] = tested on: HEK293; assay: Induction of apoptosis in Wnt-independent human HEK293 cells assessed as viable cells at 20 uM incubated for 24 hrs by Annexin V-Alexa Fluor 647/PI staining based flow cytomtery (Rvb=70.5%); type: functional; conditions: read-out: Activity
[5] = tested on: HCT-116; assay: Induction of apoptosis in Wnt-dependent human HCT-116 cells assessed as necrotic cells at 20 uM incubated for 24 hrs by Annexin V-Alexa Fluor 647/PI staining based flow cytomtery (Rvb=1.47%); type: functional
[6] = tested on: HCT-116; assay: Induction of apoptosis in Wnt-dependent human HCT-116 cells assessed as late apoptotic cells at 10 uM incubated for 24 hrs by Annexin V-Alexa Fluor 647/PI staining based flow cytomtery (Rvb=14.7%); type: functional
[7] = tested on: HCT-116; assay: Induction of apoptosis in Wnt-dependent human HCT-116 cells assessed as late apoptotic cells at 20 uM incubated for 24 hrs by Annexin V-Alexa Fluor 647/PI staining based flow cytomtery (Rvb=14.7%); type: functional
[8] = tested on: HCT-116; assay: Induction of apoptosis in Wnt-dependent human HCT-116 cells assessed as viable cells at 10 uM incubated for 24 hrs by Annexin V-Alexa Fluor 647/PI staining based flow cytomtery (Rvb=69.5%); type: functional; conditions: read-out: Activity
[9] = tested on: HCT-116; assay: Induction of apoptosis in Wnt-dependent human HCT-116 cells assessed as viable cells at 20 uM incubated for 24 hrs by Annexin V-Alexa Fluor 647/PI staining based flow cytomtery (Rvb=69.5%); type: functional; conditions: read-out: Activity
[10] = tested on: CT26; assay: Antiproliferative activity against Wnt-dependent mouse CT26 cells assessed as cell growth inhibition incubated for 48 hrs by CellTiter-Glo assay; type: functional, cell-based
[11] = tested on: A549; assay: Antiproliferative activity against Wnt-independent human A549 cells assessed as cell growth inhibition at 40 uM incubated for 48 hrs by CellTiter-Glo assay; type: functional, cell-based
[12] = tested on: EL4; assay: Cytotoxicity against CFSE labeled SIINFEKL activated OT-1 mouse derived EL4 cells assessed as change in antigen specific cell viability at 1 to 10 uM preincubated with compound for 24 hrs followed by co-cultured with C57BL/6 mouse splenocyte derived CD8+ T cells in presence of anti-PD-1 antibody cotreatment by flow cytometry; type: functional, cell-based; conditions: dose 1-10 µM
[13] = tested on: CT26; assay: Antitumor activity against mouse CT26 cells xenografted in BALB/c mouse assessed as tumor growth inhibition at 30 mg/kg, ip QD and measured upto 9 days in presence of anti-PD-1 antibody cotreatment at 10 mg/kg,ip BIW; type: functional; conditions: CT26, 216 h, time <= 9 day, read-out: TGI
[14] = Toxicity in BALB/c mouse xenografted with mouse CT26 cells assessed as adverse effect at 30 mg/kg, ip QD and measured upto 9 days; type: organism-based; conditions: in vivo, 216 h, time < 9 day
[15] = Toxicity in BALB/c mouse xenografted with mouse CT26 cells assessed as adverse effect at 30 mg/kg, ip QD and measured upto 9 days in presence of anti-PD-1 antibody cotreatment at 10 mg/kg,ip BIW; type: organism-based; conditions: in vivo, 216 h, time < 9 day
[16] = Toxicity in BALB/c mouse xenografted with mouse CT26 cells assessed as pathological changes in bone marrow at 30 mg/kg, ip QD by hematoxylin and eosin staining based microscopic analysis; type: organism-based; conditions: in vivo
[17] = Toxicity in BALB/c mouse xenografted with mouse CT26 cells assessed as pathological changes in spleen at 30 mg/kg, ip QD in presence of anti-PD-1 antibody cotreatment at 10 mg/kg,ip BIW by hematoxylin and eosin staining based microscopic analysis; type: organism-based; conditions: in vivo
[18] = Toxicity in BALB/c mouse xenografted with mouse CT26 cells assessed as pathological changes in bone marrow at 30 mg/kg, ip QD in presence of anti-PD-1 antibody cotreatment at 10 mg/kg,ip BIW by hematoxylin and eosin staining based microscopic analysis; type: organism-based; conditions: in vivo
[19] = AUC (0 to infinity) in Sprague-Dawley rat at 21 mg/kg, ip and measured upto 24 hrs by LC-MS analysis; type: ADME, organism-based; parameters: time < 24 hrs, dose 21 mg/kg, route ip; conditions: in vivo
[20] = Clearance in Sprague-Dawley rat at 21 mg/kg, ip and measured upto 24 hrs by LC-MS analysis; type: ADME, organism-based; conditions: in vivo
[21] = tested on: CT26; assay: Synergistic antitumor activity in mouse CT26 cells xenografted in BALB/c mouse assessed as increase in CD8+ T cell infiltration into tumor at 30 mg/kg, ip QD in presence of anti-PD-1 antibody cotreatment at 10 mg/kg,ip BIW by flow cytometry; type: functional, organism-based
[22] = tested on: CT26; assay: Synergistic antitumor activity in mouse CT26 cells xenografted in BALB/c mouse assessed as increase in granzyme B-positive CD8+ T cell infiltration into tumor at 30 mg/kg, ip QD in presence of anti-PD-1 antibody cotreatment at 10 mg/kg,ip BIW by flow cytometry; type: functional, organism-based
[23] = tested on: CT26; assay: Antitumor activity in mouse CT26 cells xenografted in BALB/c mouse assessed as increase in CD8+ T cell infiltration into tumor at 30 mg/kg, ip QD by flow cytometry; type: functional, organism-based
[24] = tested on: CT26; assay: Antitumor activity in mouse CT26 cells xenografted in BALB/c mouse assessed as increase in granzyme B-positive CD8+ T cell infiltration into tumor at 30 mg/kg, ip QD by flow cytometry; type: functional, organism-based
[25] = tested on: CT26; assay: Antitumor activity in mouse CT26 cells xenografted in BALB/c mouse assessed as increase in Cd8 mRNA expression level in tumor at 30 mg/kg, ip QD by qRT-PCR analysis; type: functional, organism-based
[26] = tested on: CT26; assay: Synergistic antitumor activity in mouse CT26 cells xenografted in BALB/c mouse assessed as increase in Cd8 mRNA expression level in tumor at 30 mg/kg, ip QD in presence of anti-PD-1 antibody cotreatment at 10 mg/kg,ip BIW by qRT-PCR analysis; type: functional, organism-based
[27] = tested on: CT26; assay: Synergistic antitumor activity in mouse CT26 cells xenografted in BALB/c mouse assessed as increase in IFNG mRNA expression level in tumor at 30 mg/kg, ip QD in presence of anti-PD-1 antibody cotreatment at 10 mg/kg,ip BIW by qRT-PCR analysis; type: functional, organism-based
[28] = tested on: CT26; assay: Synergistic antitumor activity in mouse CT26 cells xenografted in BALB/c mouse assessed as increase in GZMB mRNA expression level in tumor at 30 mg/kg, ip QD in presence of anti-PD-1 antibody cotreatment at 10 mg/kg,ip BIW by qRT-PCR analysis; type: functional, organism-based
[29] = tested on: CT26; assay: Synergistic antitumor activity in mouse CT26 cells xenografted in BALB/c mouse assessed as decrease in Foxp3-positive Treg cells in TIME tumor cells at 30 mg/kg, ip QD in presence of anti-PD-1 antibody cotreatment at 10 mg/kg,ip BIW by flow cytomtery; type: functional, organism-based

## CC(C)c1ccc(-c2cccc(S(=O)(=O)N3CCCC(c4cccc(OC(C)(C)C(=O)NS(=O)(=O)c5ccc(C(F)(F)F)cc5)c4)C3)c2)cc1 (centres undefined)
[1]
  half-life: 20.9 min
[2]
  Activity: 16.6%
[3]
  Activity: 17%
[4]
  viability at 20 µM: 64.7%
[5]
  Activity: 3.22%
[6]
  Activity: 21.5%
[7]
  Activity: 33.1%
[8]
  viability at 10 µM: 59.8%
[9]
  viability at 20 µM: 37.3%
[10]
  Activity: Active
[11]
  Activity: inactive
[12]
  Activity: Dose-Dependent Effect
[13]
  inhibition in vivo at 30 mg/kg: 81.1%
[14]
  Activity: Non-Toxic
[15]
  Activity: Non-Toxic
[16]
  Activity: Non-Toxic
[17]
  Activity: Non-Toxic
[18]
  Activity: Non-Toxic
[19]
  AUC(0-inf): 17400 ng·h/mL
[20]
  CL/F: 20.1 mL/min/kg
[21]
  Activity: Active
[22]
  Activity: Active
[23]
  Activity: Active
[24]
  Activity: Active
[25]
  Activity: Active
[26]
  Activity: Active
[27]
  Activity: Active
[28]
  Activity: Active
[29]
  Activity: Active
